How the values were obtained:
Assay type in all cases: functional
Phalaris minor [1] = assay: Herbicidal activity against isoproturon-resistant Phalaris minor infested wheat field assessed as wheat yield at 60 g/ha applied at 32 to 35 days after sowing through sprayer (reference value: 3.41 t/ha)
Phalaris minor [2] = assay: Herbicidal activity against isoproturon-resistant Phalaris minor infested wheat field assessed as wheat yield at 60 g/ha applied at 35 days after sowing through sprayer measured 95 days after sowing (reference value: 3.05 t/ha)
Melilotus albus [3] = assay: Herbicidal activity against Melilotus albus infested wheat field assessed as weed dry weight at 60 g/ha applied at 32 to 35 days after sowing through sprayer measured 100 days after sowing (reference value: 313.7 g/m2)
Lepidium didymum [4] = assay: Herbicidal activity against Lepidium didymum infested wheat field assessed as weed dry weight at 60 g/ha applied at 32 to 35 days after sowing through sprayer measured 100 days after sowing (reference value: 313.7 g/m2)
Phalaris minor [5] = assay: Herbicidal activity against isoproturon-resistant Phalaris minor infested wheat field assessed as weed dry weight at 60 g/ha applied at 35 days after sowing through sprayer measured 95 days after sowing (reference value: 213.0 g/m2)
Medicago polymorpha [6] = assay: Herbicidal activity against Medicago polymorpha infested wheat field assessed as weed dry weight at 60 g/ha applied at 32 to 35 days after sowing through sprayer measured 100 days after sowing (reference value: 313.7 g/m2)
Phalaris minor [7] = assay: Herbicidal activity against isoproturon-resistant Phalaris minor infested wheat field assessed as weed dry weight at 60 g/ha applied at 32 to 35 days after sowing through sprayer measured 100 days after sowing (reference value: 313.7 g/m2)
Lepidium didymum [8] = assay: Herbicidal activity against Lepidium didymum infested wheat field assessed as weed dry weight at 120 g/ha applied at 32 to 35 days after sowing through sprayer measured 100 days after sowing (reference value: 313.7 g/m2)
Medicago polymorpha [9] = assay: Herbicidal activity against Medicago polymorpha infested wheat field assessed as weed dry weight at 120 g/ha applied at 32 to 35 days after sowing through sprayer measured 100 days after sowing (reference value: 313.7 g/m2)
Phalaris minor [10] = assay: Herbicidal activity against isoproturon-resistant Phalaris minor infested wheat field assessed as wheat yield at 120 g/ha applied at 32 to 35 days after sowing through sprayer (reference value: 3.41 t/ha)
Melilotus albus [11] = assay: Herbicidal activity against Melilotus albus infested wheat field assessed as weed dry weight at 120 g/ha applied at 32 to 35 days after sowing through sprayer measured 100 days after sowing (reference value: 313.7 g/m2)
Phalaris minor [12] = assay: Herbicidal activity against isoproturon-resistant Phalaris minor infested wheat field assessed as weed dry weight at 120 g/ha applied at 32 to 35 days after sowing through sprayer measured 100 days after sowing (reference value: 313.7 g/m2)
Phalaris minor [13] = assay: Herbicidal activity against isoproturon-resistant Phalaris minor infested wheat field assessed as wheat yield at 1000 g/ha applied at 35 days after sowing through sprayer measured 95 days after sowing (reference value: 3.05 t/ha)
Melilotus albus [14] = assay: Herbicidal activity against Melilotus albus infested wheat field assessed as weed dry weight at 1000 g/ha applied at 32 to 35 days after sowing through sprayer measured 100 days after sowing (reference value: 313.7 g/m2)
Lepidium didymum [15] = assay: Herbicidal activity against Lepidium didymum infested wheat field assessed as weed dry weight at 1000 g/ha applied at 32 to 35 days after sowing through sprayer measured 100 days after sowing (reference value: 313.7 g/m2)
Phalaris minor [16] = assay: Herbicidal activity against isoproturon-resistant Phalaris minor infested wheat field assessed as weed dry weight at 1000 g/ha applied at 32 to 35 days after sowing through sprayer measured 100 days after sowing (reference value: 313.7 g/m2)
Phalaris minor [17] = assay: Post-emergence herbicidal activity against isoproturon-resistant Phalaris minor infested wheat field assessed as reduction in weed dry weight at 1000 g/ha applied on 1 after sowing through sprayer measured 120 days after sowing relative to control; parameters: scale not given: the % may be the effect or the level left
Phalaris minor [18] = assay: Herbicidal activity against isoproturon-resistant Phalaris minor infested wheat field assessed as wheat yield at 1000 g/ha applied at 32 to 35 days after sowing through sprayer (reference value: 3.41 t/ha)
Phalaris minor [19] = assay: Herbicidal activity against isoproturon-resistant Phalaris minor infested wheat field assessed as weed dry weight at 1000 g/ha applied at 35 days after sowing through sprayer measured 95 days after sowing (reference value: 213.0 g/m2)
Medicago polymorpha [20] = assay: Herbicidal activity against Medicago polymorpha infested wheat field assessed as weed dry weight at 1000 g/ha applied at 32 to 35 days after sowing through sprayer measured 100 days after sowing (reference value: 313.7 g/m2)
Phalaris minor [21] = assay: Post-emergence herbicidal activity against isoproturon-resistant Phalaris minor infested wheat field assessed as reduction in weed dry weight at 280 g/ha applied on 1 after sowing through sprayer measured 120 days after sowing relative to control; parameters: scale not given: the % may be the effect or the level left
Phalaris minor [22] = assay: Pre-emergence herbicidal activity against isoproturon-resistant Phalaris minor infested wheat field assessed as reduction in weed dry weight at 1250 g/ha applied on 1 after sowing through sprayer measured 120 days after sowing relative to control; parameters: scale not given: the % may be the effect or the level left
Phalaris minor [23] = assay: Herbicidal activity against isoproturon-resistant Phalaris minor infested wheat field assessed as weed dry weight at 30 g/ha applied at 35 days after sowing through sprayer in presence of 0.5 % surfactant A 12127 measured 95 days after sowing (reference value: 213.0 g/m2)
Phalaris minor [24] = assay: Herbicidal activity against isoproturon-resistant Phalaris minor infested wheat field assessed as weed dry weight at 35 g/ha applied at 35 days after sowing through sprayer in presence of 0.5 % surfactant A 12127 measured 95 days after sowing (reference value: 213.0 g/m2)
Phalaris minor [25] = assay: Herbicidal activity against isoproturon-resistant Phalaris minor infested wheat field assessed as wheat yield at 30 g/ha applied at 35 days after sowing through sprayer in presence of 0.5 % surfactant A 12127 measured 95 days after sowing (reference value: 3.05 t/ha)
Phalaris minor [26] = assay: Herbicidal activity against isoproturon-resistant Phalaris minor infested wheat field assessed as wheat yield at 35 g/ha applied at 35 days after sowing through sprayer in presence of 0.5 % surfactant A 12127 measured 95 days after sowing (reference value: 3.05 t/ha)
Phalaris minor [27] = assay: Herbicidal activity against isoproturon-resistant Phalaris minor infested wheat field assessed as wheat yield at 120 g/ha applied at 32 to 35 days after sowing through sprayer in presence of surfactant MON 0818 (reference value: 3.41 t/ha)
Medicago polymorpha [28] = assay: Herbicidal activity against Medicago polymorpha infested wheat field assessed as weed dry weight at 120 g/ha applied at 32 to 35 days after sowing through sprayer in presence of surfactant MON 0818 measured 100 days after sowing (reference value: 313.7 g/m2)
Lepidium didymum [29] = assay: Herbicidal activity against Lepidium didymum infested wheat field assessed as weed dry weight at 120 g/ha applied at 32 to 35 days after sowing through sprayer in presence of surfactant MON 0818 measured 100 days after sowing (reference value: 313.7 g/m2)
Melilotus albus [30] = assay: Herbicidal activity against Melilotus albus infested wheat field assessed as weed dry weight at 120 g/ha applied at 32 to 35 days after sowing through sprayer in presence of surfactant MON 0818 measured 100 days after sowing (reference value: 313.7 g/m2)
Phalaris minor [31] = assay: Herbicidal activity against isoproturon-resistant Phalaris minor infested wheat field assessed as weed dry weight at 120 g/ha applied at 32 to 35 days after sowing through sprayer in presence of surfactant MON 0818 measured 100 days after sowing (reference value: 313.7 g/m2)
Phalaris minor [32] = assay: Post-emergence herbicidal activity against isoproturon-resistant Phalaris minor infested wheat field assessed as reduction in weed dry weight at 25 g/ha applied on 1 after sowing through sprayer measured 120 days after sowing relative to control; parameters: scale not given: the % may be the effect or the level left

Structure (SMILES): C[C@@H](Oc1ccc(Oc2ncc(Cl)cc2F)cc1)C(=O)O [CLODINAFOP]
- Crop_yield (Phalaris minor [1]): 6.01 tons/ha
- Crop_yield (Phalaris minor [2]): 5.42 tons/ha
- Activity (Melilotus albus [3]): 38.3 g/m2
- Activity (Lepidium didymum [4]): 38.3 g/m2
- Activity (Phalaris minor [5]): 0.6 g/m2
- Activity (Medicago polymorpha [6]): 38.3 g/m2
- Activity (Phalaris minor [7]): 0.6 g/m2

Structure (SMILES): C[C@@H](Oc1ccc(Oc2nc3ccc(Cl)cc3o2)cc1)C(=O)O [FENOXAPROP-P]
- Activity (Lepidium didymum [8]): 25.2 g/m2
- Activity (Medicago polymorpha [9]): 25.2 g/m2
- Crop_yield (Phalaris minor [10]): 5.96 tons/ha
- Activity (Melilotus albus [11]): 25.2 g/m2
- Activity (Phalaris minor [12]): 5.9 g/m2

Structure (SMILES): CC(C)c1ccc(NC(=O)N(C)C)cc1 [ISOPROTURON]
- Crop_yield (Phalaris minor [13]): 3.61 tons/ha
- Activity (Melilotus albus [14]): 3 g/m2
- Activity (Lepidium didymum [15]): 3 g/m2
- Activity (Phalaris minor [16]): 242 g/m2
- Activity (Phalaris minor [17]): 26.2%
- Crop_yield (Phalaris minor [18]): 3.99 tons/ha
- Activity (Phalaris minor [19]): 179.2 g/m2
- Activity (Medicago polymorpha [20]): 3 g/m2

Structure (SMILES): CSc1nnc(C(C)(C)C)c(=O)n1N [METRIBUZIN]
- Activity (Phalaris minor [21]): 94.7%

Structure (SMILES): CCC(CC)Nc1c([N+](=O)[O-])cc(C)c(C)c1[N+](=O)[O-] [PENDIMETHALIN]
- Activity (Phalaris minor [22]): 88.5%

Structure (SMILES): CCc1cc(C)cc(CC)c1-c1c(OC(=O)C(C)(C)C)n2n(c1=O)CCOCC2 [PINOXADEN]
- Activity (Phalaris minor [23]): 2.3 g/m2
- Activity (Phalaris minor [24]): 0.3 g/m2
- Crop_yield (Phalaris minor [25]): 5.44 tons/ha
- Crop_yield (Phalaris minor [26]): 5.38 tons/ha

Structure (SMILES): CCS(=O)(=O)c1nc2ccccn2c1S(=O)(=O)NC(=O)Nc1nc(OC)cc(OC)n1 [SULFOSULFURON]
- Crop_yield (Phalaris minor [27]): 6.2 tons/ha
- Activity (Medicago polymorpha [28]): 1.8 g/m2
- Activity (Lepidium didymum [29]): 1.8 g/m2
- Activity (Melilotus albus [30]): 1.8 g/m2
- Activity (Phalaris minor [31]): 0.3 g/m2
- Activity (Phalaris minor [32]): 93.8%
